The text below walks through data of EP0103381B1, “Substituted anthra(1,9-cd)pyrazol-6(2H)-ones” (WARNER-LAMBERT COMPANY, priority 1982, dated 1984).

One assay concerns Bacillus subtilis. The assay is described as follows: agar plate paper-disc inhibition zone screening. Format: cell-based. Conditions: read-out: Inhibition Zone Diameter mm (Dose mg/ml) B. Subtilis; for zone of inhibition at 3000 µg/mL: Dose 3.0 mg/ml; for zone of inhibition at 1000 µg/mL: Dose 1.0 mg/ml. The method, then: (§1) The bacterial and yeast isolates are maintained in agar slants or in liquid media, hereby designated as inoculum media. The cultures are transferred at regular intervals in such media. (See Table for the corresponding inoculum media of each culture.) The organisms are generally transferred on to agar slants or liquid inoculum media and incubated overnight (18-20 hours): 37°C for the bacterial isolates and 28°C for the fungal cultures.
(§2) The microbial cells from the overnight agar slants are then scraped off and suspended in saline solution (0.85% NaCI). The microbial concentrations are adjusted to a light transmittancy of 20-35%, Junior Coleman Spectrophotometer (555 M). For the organisms that are maintained in liquid media, an aliquot of the culture suspension is simply diluted with saline to 20-35% light transmittancy.
(§3) The above microbial suspension serve as inocula for the assay plates. Thus, 0.16-10 ml (see Table for exact amount) are used to inoculate 100 ml of the molten-agar assay medium.
(§4) Stainless steel frames, 12.3 x 25.3 cm (ID) and glass plates, 15.3 x 31.7 cm are used to make the test trays. The frames are attached to the plates with tape at each end and the inner edges sealed with 2% agar. Twenty five ml of inoculated assay medium is spread evenly on each tray and allowed to solidify. The trays are covered, inverted, and refrigerated until used.
(§5) The compounds or samples to be tested are dissolved in suitable solvents, e.g., alcohols, dimethylsulfoxide, or N,N-dimethylformamide. The samples are generally dissolved so that the final concentration of the solvent is <10%.^* The compounds are tested at different concentrations: 3,000; 1,000; 500; 100; and 10 mcg/ml. Paper discs (12.7 mm diameter) are placed on the agar trays with forceps, then 0.08 ml of the dissolved compound is pipetted onto each disc using a 0.2 ml pipette.
(§6) The disked agar trays are incubated overnight (18-20 hours) at 37°C for the bacterial cultures and 28°C for the yeasts. The Penicillium avellaneium tray is incubated for at least […] since it is a slower- growing organism.
(§7) Active compounds show a zone of inhibition around the disc. The diameter of the zone is measured in mm. The zone diameter of active compounds ranges from a minimum of 13.5 mm to as high as 60 mm. The size of the zone diameter generally reflects the activity of the compound: the larger the zone the greater the activity.

A further assay relates to Escherichia coli. As to the kind of experiment: agar plate paper-disc inhibition zone screening. The class given is cell-based. Conditions: read-out: Inhibition Zone Diameter mm (Dose mg/ml) E. Coli; for zone of inhibition at 500 µg/mL: Dose 0.5 mg/ml; for zone of inhibition at 1000 µg/mL: Dose 1.0 mg/ml; for zone of inhibition at 3000 µg/mL: Dose 3.0 mg/ml. How it is done: as §1, §2, §3, §4, §5, §6, §7

In the next assay the test system is Streptococcus faecalis. The assay is described as follows: agar plate paper-disc inhibition zone screening. Conditions: Enterococcus faecalis, read-out: Inhibition Zone Diameter mm (Dose mg/ml) S. Faecalis; for zone of inhibition at 3000 µg/mL: Dose 3.0 mg/ml; for zone of inhibition at 1000 µg/mL: Dose 1.0 mg/ml. Format: cell-based. The method, then: as §1, §2, §3, §4, §5, §6, §7

For the next assay, the system named is Aerobacter aerogenes. As to the kind of experiment: agar plate paper-disc inhibition zone screening. The class given is cell-based. Conditions: Klebsiella aerogenes, read-out: Inhibition Zone Diameter mm (Dose mg/ml) A. Aerogenes; for zone of inhibition at 3000 µg/mL: Dose 3.0 mg/ml; for zone of inhibition at 1000 µg/mL: Dose 1.0 mg/ml; for zone of inhibition at 500 µg/mL: Dose 0.5 mg/ml. How it is done:
as §1, §2, §3, §4, §5, §6, §7

Assay [1] deals with lymphocytic leukemia P388. The assay is described as follows: in vivo lymphocytic leukemia P388 test. On the set-up: species or system mice. Conditions: Mus musculus, P388, ip, 720 h, two single doses four days apart, read-out: T/C × 100 (Percent); for response vs control in vivo at 12.5 mg/kg: P388, Dose 12.5 mg/kg intraperitoneally; for response vs control in vivo at 25 mg/kg: P388, Dose 25 mg/kg intraperitoneally; for response vs control in vivo at 50 mg/kg: P388, Dose 50 mg/kg intraperitoneally; for response vs control in vivo at 3.12 mg/kg: P388, Dose 3.12 mg/kg intraperitoneally; for response vs control in vivo at 6.25 mg/kg: P388, Dose 6.25 mg/kg intraperitoneally. The method, then:
The in vivo lymphocytic leukemia P388 test is carried out by the United States National Cancer Institute. The animals used are either male or female CD2F, mice. There are six to seven animals per test group. The tumor transplant is by intraperitoneal injection of dilute ascitic fluid containing cells of lymphocytic leukemia P388. The test compounds are administered intraperitoneally in two single doses with a four-day interval between doses at various dose levels following tumor inoculation. The animals are weighed and survivors are recorded on a regular basis for 30 days. A ratio of survival time for treated (T)/ control (C) animals is calculated. The criterion for efficacy is T/C x 100 > 125%. The positive control compound in this test is 1,4-dihydroxy-5,8-[bis[[2-[(2-hydroxyethyl)amino]-ethyl]amino]-9,10-anthracene- dione given at dosages ranging from 12.0 to 0.075 mg/kg. See Cancer Chemotherapy Reports, Part 3, 3, 1 (1972) for a comprehensive discussion of the protocol.

In the next assay the test system is Penicillium avellaneum. The assay is described as follows: agar plate paper-disc inhibition zone screening. Conditions: Hamigera avellanea, read-out: Inhibition Zone Diameter mm (Dose mg/ml) P. Avellaneum; for zone of inhibition at 3000 µg/mL: Dose 3.0 mg/ml; for zone of inhibition at 500 µg/mL: Dose 0.5 mg/ml. The class given is cell-based. The method, then: The Penicillium avellaneum is grown for six days, at 28°C, on an agar medium. This is to allow sporulation of the culture. The organism is then harvested by scraping off the cells from the agar surface (mycelia and spores) and suspending them in saline solution containing 0.05% Tween 80.
The suspension is adjusted to a light transmittancy of 20%. One ml of this suspension is used to inoculate 100 ml of the molten-agar assay medium.
as §4, §5, §6, §7

Take `CCN(CC)CCNc1ccc2c3c(nn2CC(O)CN(CC)CC)-c2c(O)ccc(O)c2C(=O)c13` (stereo not drawn) [Example 44]: the zone of inhibition at 3000 µg/mL with Bacillus subtilis is 15 mm; in the assay on Streptococcus faecalis it was 14 mm; in the assay with Aerobacter aerogenes, 14 mm; in the assay with Penicillium avellaneum, 0 mm. In the assay on Escherichia coli, the zone of inhibition at 500 µg/mL worked out at 15 mm. Also, the response vs control in vivo at 12.5 mg/kg in assay [1] turned out to be 128%. In addition, in assay [1], the response vs control in vivo at 25 mg/kg amounted to 131%. Moreover, the response vs control in vivo at 50 mg/kg in assay [1] was determined as 131%.

For the molecule `CN(C)CCNCCNc1ccc2c3c(nn2CCNCCO)-c2c(O)ccc(O)c2C(=O)c13` [Example 63], the zone of inhibition at 3000 µg/mL came to 18 mm in the assay with Bacillus subtilis, 16 mm with Streptococcus faecalis and 0 mm in the assay with Penicillium avellaneum. Moreover, the zone of inhibition at 1000 µg/mL with Escherichia coli is 15 mm; in the assay with Aerobacter aerogenes, 14 mm. The response vs control in vivo at 3.12 mg/kg in assay [1] was 152%. In assay [1], the response vs control in vivo at 6.25 mg/kg was determined as 169%.

`NCCCCCNc1ccc2c3c(nn2CCNCCO)-c2c(O)ccc(O)c2C(=O)c13` [Example 60, 5-[(5-Aminopentyl)amino]-7,10-dihydroxy-2-[2-[(2-hydroxyethyl)amino]ethyl]anthra[1,9-cd]pyrazol-6(2H)-one]: the zone of inhibition at 3000 µg/mL with Bacillus subtilis stood at 0 mm; in the assay on Escherichia coli it was 14 mm; in the assay on Streptococcus faecalis it was 0 mm; in the assay on Aerobacter aerogenes it was 0 mm; in the assay with Penicillium avellaneum it was 0 mm. For the same molecule, the response vs control in vivo at 12.5 mg/kg in assay [1] is 127%. Besides, the response vs control in vivo at 25 mg/kg in assay [1] turned out to be 127%. The response vs control in vivo at 50 mg/kg in assay [1] worked out at 127%. For the same molecule, the response vs control in vivo at 100 mg/kg in assay [1] (P388, Dose 100 mg/kg intraperitoneally) is 150%.

Consider `CN(C)CCn1nc2c3c(c(NCCN)ccc31)C(=O)c1c(O)ccc(O)c1-2` [Example 33, 5-[(2-Aminoethyl)amino]-2-[2-(dimethylamino)ethyl]-7,10-dihydroxyanthra[1,9-cd]pyrazol-6(2H)-one], for which the zone of inhibition at 1000 µg/mL with Bacillus subtilis is 14 mm. Also, the zone of inhibition at 500 µg/mL with Escherichia coli and with Aerobacter aerogenes was 14 mm throughout. In addition, the zone of inhibition at 3000 µg/mL in the assay with Streptococcus faecalis was 16 mm; in the assay on Penicillium avellaneum, 0 mm. In assay [1], the response vs control in vivo at 3.12 mg/kg worked out at 182%. For the same molecule, in assay [1], the response vs control in vivo at 6.25 mg/kg is 182%.

Turning to `CCN(CC)CC(O)Cn1nc2c3c(c(Cl)ccc31)C(=O)c1c(O)ccc(O)c1-2` (stereo not drawn) [7,10-(OH)2; Cl*; CH2CHOHCH2NEt2, 5-Chloro-2-[3-(diethylamino)-2-hydroxypropyl]-7,10-dihydroxyanthra[1,9-cd]pyrazol-6(2H)-one], the zone of inhibition at 3000 µg/mL stood at 14 mm with Bacillus subtilis, 14 mm in the assay with Streptococcus faecalis, 0 mm with Aerobacter aerogenes and 14 mm in the assay with Penicillium avellaneum. Also, the zone of inhibition at 500 µg/mL in the assay with Escherichia coli came to 14 mm.

Take `CN(CCO)CCn1nc2c3c(c(Cl)ccc31)C(=O)c1c(O)ccc(O)c1-2` [7,10-(OH)2; Cl*; Me | (CH2)2N (CH2)2OH, 5-Chloro-7,10-dihydroxy-2-[2-[(2-hydroxyethyl)methylamino]ethyl]anthra[1,9-cd]pyrazol-6(2H)-one]: the zone of inhibition at 3000 µg/mL with Bacillus subtilis was determined as 0 mm; in the assay on Escherichia coli, 14 mm; in the assay with Streptococcus faecalis, 0 mm; with Aerobacter aerogenes it was 0 mm; in the assay on Penicillium avellaneum, 0 mm.

Take `CN(C)CCNCCn1nc2c3c(c(Cl)ccc31)C(=O)c1c(O)ccc(O)c1-2` [7,10-(OH)2; Cl*; (CH2)2NH(CH2)2NMe2, 5-Chloro-2-[2-[[2-(dimethylamino)ethyl]amino]ethyl]-7,10-dihydroxyanthra[1,9-cd]pyrazol-6(2H)-one]: the zone of inhibition at 3000 µg/mL with Bacillus subtilis was found to be 14 mm; in the assay on Escherichia coli it was 0 mm; in the assay on Streptococcus faecalis, 0 mm; in the assay with Aerobacter aerogenes it was 0 mm; in the assay on Penicillium avellaneum it was 0 mm.

For `CCN(CC)CCn1nc2c3c(c(Cl)ccc31)C(=O)c1ccccc1-2` [H; Cl*; (CH2)2NEt2, 5-Chloro-2-[2-(diethylamino)ethyl]anthra[1,9-cd]pyrazol-6(2H)-one], the zone of inhibition at 100 µg/mL with Bacillus subtilis (Dose 0.1 mg/ml) came out at 16 mm. Besides, the zone of inhibition at 500 µg/mL with Escherichia coli turned out to be 14 mm; in the assay with Aerobacter aerogenes, 14 mm; in the assay on Penicillium avellaneum, 16 mm. In addition, in the assay on Streptococcus faecalis, the zone of inhibition at 1000 µg/mL worked out at 16 mm.

In the case of `CN(C)CCn1nc2c3c(c(Cl)ccc31)C(=O)c1c(O)ccc(O)c1-2` [7,10-(OH)2; Cl*; (CH2)2NMe2, 5-Chloro-2-[2-(dimethylamino)ethyl]-7,10-dihydroxyanthra[1,9-cd]pyrazol-6(2H)-one], the zone of inhibition at 3000 µg/mL was determined as 0 mm in the assay on Bacillus subtilis, 0 mm in the assay on Streptococcus faecalis and 15 mm in the assay on Aerobacter aerogenes. In the assay with Escherichia coli, the zone of inhibition at 1000 µg/mL was 14 mm. The zone of inhibition at 500 µg/mL in the assay on Penicillium avellaneum was determined as 15 mm.

Take `O=C1c2ccccc2-c2nn(CCNCCO)c3ccc(NCCO)c1c23` [Example 24, 5-[(2-Hydroxyethyl)amino]-2-[2-[(2-hydroxyethyl)amino]ethyl]anthra[1,9-cd]pyrazol-6(2H)-one]: the zone of inhibition at 500 µg/mL in the assay with Bacillus subtilis (Dose 0.5 mg/ml) was 18 mm; in the assay on Escherichia coli, 15 mm. Further, the zone of inhibition at 1000 µg/mL in the assay with Streptococcus faecalis and in the assay with Aerobacter aerogenes was 14 mm in each case. Further, the zone of inhibition at 3000 µg/mL in the assay with Penicillium avellaneum is 0 mm.

As to `CCN(CC)CCCCNc1ccc2c3c(nn2CCO)-c2ccccc2C(=O)c13` [Example 16, 5-[[4-(Diethylamino)butyl]amino]-2-(2-hydroxyethyl)anthra[1,9-cd]pyrazol-6(2H)-one], the zone of inhibition at 1000 µg/mL in the assay on Bacillus subtilis came to 25 mm. The zone of inhibition at 3000 µg/mL in the assay on Escherichia coli, in the assay with Streptococcus faecalis, with Aerobacter aerogenes and in the assay with Penicillium avellaneum was 0 mm each time.
